# Laboratory results as given in patent publication US8686150B2 (Sanofi, priority 2011, dated 2014).
# Molecular target: T1, human full-length recombinant PKC βII (Homo sapiens, UniProt P05771)
# T1 construct: Active human full-length recombinant PKC βII; purchased Invitrogen GmbH, Darmstadt, Germany
# Assay: Determination of PKC βII inhibition (Caliper mobility-shift kinase assay, Fluorescein-RFARKGSLRQKNV peptide substrate)
# Format: biochemical
# Details: example compounds at a final concentration of 1.14 μM (±0.15 μM)
# Summary of the method: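 Full-length PKC βII (30 ng/ml in pre-dilution) with PS/DAG/Ca2+ activators, pH 7.4; fluorescein peptide and ATP at 3 μM and 120 μM before mixing. Reaction ran 60 min at 32 °C, was EDTA-stopped, and was read by mobility shift. % inhibition came from product/(substrate+product) peak heights, tested at 1.14 μM final.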
# T1 sequence (P05771 1-673 isoform P05771-2): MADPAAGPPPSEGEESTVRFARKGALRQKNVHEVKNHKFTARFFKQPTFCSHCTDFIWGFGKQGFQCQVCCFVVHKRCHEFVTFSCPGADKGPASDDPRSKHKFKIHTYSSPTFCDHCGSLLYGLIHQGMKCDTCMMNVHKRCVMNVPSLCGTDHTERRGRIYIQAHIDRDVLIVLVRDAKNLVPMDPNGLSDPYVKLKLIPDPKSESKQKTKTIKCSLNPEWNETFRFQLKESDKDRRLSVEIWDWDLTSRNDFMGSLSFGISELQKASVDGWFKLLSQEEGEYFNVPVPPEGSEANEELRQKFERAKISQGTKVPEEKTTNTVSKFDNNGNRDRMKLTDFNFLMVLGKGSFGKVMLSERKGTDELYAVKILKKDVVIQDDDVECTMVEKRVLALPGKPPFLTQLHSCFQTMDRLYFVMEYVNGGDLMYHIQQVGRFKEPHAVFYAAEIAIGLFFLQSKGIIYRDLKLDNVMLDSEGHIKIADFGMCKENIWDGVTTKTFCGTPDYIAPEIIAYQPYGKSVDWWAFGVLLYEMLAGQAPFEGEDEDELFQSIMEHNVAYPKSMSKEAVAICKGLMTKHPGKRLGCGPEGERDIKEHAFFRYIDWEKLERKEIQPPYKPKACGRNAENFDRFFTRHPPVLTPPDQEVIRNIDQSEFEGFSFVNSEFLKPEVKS
SMILES,inhibition at 1.14 µM [%],% Inhibition [%]
"Cc1n[nH]c2nc(-c3ccc(O)cc3)cc(C(=O)N3C[C@H]4CC[C@@H](C3)C4N)c12 (some centres unmarked) [Example 227, (8-Amino-3-aza-bicyclo[3.2.1]oct-3-yl)-[6-(4-hydroxy-phenyl)-3-methyl-1H-pyrazolo[3,4-b]pyridin-4-yl]-methanone]",100,
"Cc1n[nH]c2nc(-c3ccc(O)c(F)c3)cc(C(=O)N(C)C3CCN(C)CC3)c12 [Example 331, 6-(3-Fluoro-4-hydroxy-phenyl)-3-methyl-1H-pyrazolo[3,4-b]pyridine-4-carboxylic acid methyl-(1-methyl-piperidin-4-yl)-amide]",41,
"Cc1n[nH]c2nc(-c3ccc(O)cc3)cc(C(=O)N3CC(C)(C)NCC3(C)C)c12 [Example 121, [6-(4-Hydroxy-phenyl)-3-methyl-1H-pyrazolo[3,4-b]pyridin-4-yl]-(2,2,5,5-tetramethyl-piperazin-1-yl)-methanone]",99,
"Cc1n[nH]c2nc(-c3ccc(O)cc3)cc(C(=O)N3CC4CNCC4C3)c12 (centres unmarked) [Example 192, (Hexahydro-pyrrolo[3,4-c]pyrrol-2-yl)-[6-(4-hydroxy-phenyl)-3-methyl-1H-pyrazolo[3,4-b]pyridin-4-yl]-methanone]",99,
"Cc1n[nH]c2nc(-c3ccc(O)cc3)cc(C(=O)N3CCCN(C)CC3)c12 [Example 269, [6-(4-Hydroxy-phenyl)-3-methyl-1H-pyrazolo[3,4-b]pyridin-4-yl]-(4-methyl-[1,4]diazepan-1-yl)-methanone]",87,
"CCc1n[nH]c2nc(-c3ccc(O)cc3)cc(C(=O)NC3CC4CCCC(C3)N4C)c12 (centres unmarked) [Example 184, 3-Ethyl-6-(4-hydroxy-phenyl)-1H-pyrazolo[3,4-b]pyridine-4-carboxylic acid (9-methyl-9-aza-bicyclo[3.3.1]non-3-yl)-amide]",22,
"Cc1ccc(C(=O)N2CCN(C(=O)c3cc(-c4ccc(O)cc4)nc4[nH]nc(C)c34)CC2)cc1 [Example 267, [6-(4-Hydroxy-phenyl)-3-methyl-1H-pyrazolo[3,4-b]pyridin-4-yl]-[4-(4-methyl-benzoyl)-piperazin-1-yl]-methanone]",32,
"CCc1n[nH]c2nc(-c3ccc(O)cc3)cc(C(=O)NC3CCCN(C)C3)c12 (centres unmarked) [Example 180, 3-Ethyl-6-(4-hydroxy-phenyl)-1H-pyrazolo[3,4-b]pyridine-4-carboxylic acid (1-methyl-piperidin-3-yl)-amide]",53,
"Cc1n[nH]c2nc(-c3ccc(O)c(F)c3)cc(C(=O)NC3CN4CCC3CC4)c12 (stereo in doubt) [Example 317, (S)-6-(3-Fluoro-4-hydroxy-phenyl)-3-methyl-1H-pyrazolo[3,4-b]pyridine-4-carboxylic acid (1-aza-bicyclo[2.2.2]oct-3-yl)-amide]",68,
"Cc1n[nH]c2nc(-c3ccc(O)cc3)cc(C(=O)N3CC4CCCCN4CC3C)c12 (centres unmarked) [Example 285, [6-(4-Hydroxy-phenyl)-3-methyl-1H-pyrazolo[3,4-b]pyridin-4-yl]-(3-methyl-octahydro-pyrido[1,2-a]pyrazin-2-yl)-methanone]",76,
"O=C(c1cc(-c2ccc(O)cc2)nc2[nH]nc(C(F)(F)F)c12)N1CCC2(CC1)CNC2 [Example 405, (2,7-Diaza-spiro[3.5]non-7-yl)-[6-(4-hydroxy-phenyl)-3-trifluoromethyl-1H-pyrazolo[3,4-b]pyridin-4-yl]-methanone]",48,
"Cc1n[nH]c2nc(-c3ccc(O)c(F)c3)cc(C(=O)N3CCNC(C(F)(F)F)C3)c12 (centres unmarked) [Example 314, [6-(3-Fluoro-4-hydroxy-phenyl)-3-methyl-1H-pyrazolo[3,4-b]pyridin-4-yl]-(3-trifluoromethyl-piperazin-1-yl)-methanone]",35,
"Cc1n[nH]c2nc(-c3ccc(O)c(F)c3)cc(C(=O)N3CCCN(C)CC3)c12 [Example 365, [6-(3-Fluoro-4-hydroxy-phenyl)-3-methyl-1H-pyrazolo[3,4-b]pyridin-4-yl]-(4-methyl-[1,4]diazepan-1-yl)-methanone]",41,
"CCc1n[nH]c2nc(-c3ccc(O)cc3)cc(C(=O)N(C)C3CCN(C)CC3)c12 [Example 174, 3-Ethyl-6-(4-hydroxy-phenyl)-1H-pyrazolo[3,4-b]pyridine-4-carboxylic acid methyl-(1-methyl-piperidin-4-yl)-amide]",34,
"CCc1n[nH]c2nc(-c3ccc(O)cc3)cc(C(=O)NC3CN4CCC3CC4)c12 (centres unmarked) [Example 159, 3-Ethyl-6-(4-hydroxy-phenyl)-1H-pyrazolo[3,4-b]pyridine-4-carboxylic acid (1-aza-bicyclo[2.2.2]oct-3-yl)-amide]",55,
"CCC1(N)CCN(C(=O)c2cc(-c3ccc(O)cc3F)nc3[nH]nc(C)c23)CC1 [Example 416, (4-Amino-4-ethyl-piperidin-1-yl)-[6-(2-fluoro-4-hydroxy-phenyl)-3-methyl-1H-pyrazolo[3,4-b]pyridin-4-yl]-methanone]",84,
"Cc1n[nH]c2nc(-c3ccc(O)cc3)cc(C(=O)NC3CCN(CCc4ccccc4)CC3)c12 [Example 382, 6-(4-Hydroxy-phenyl)-3-methyl-1H-pyrazolo[3,4-b]pyridine-4-carboxylic acid (1-phenethyl-piperidin-4-yl)-amide]",67,
"Cc1n[nH]c2nc(-c3ccc(O)cc3)cc(C(=O)N3CCC4(CCNC4)CC3)c12 [Example 257, (2,8-Diaza-spiro[4.5]dec-8-yl)-[6-(4-hydroxy-phenyl)-3-methyl-1H-pyrazolo[3,4-b]pyridin-4-yl]-methanone]",82,
"CCc1n[nH]c2nc(-c3ccc(O)cc3)cc(C(=O)N[C@@H]3CCC(=O)NC3)c12 [Example 185, 3-Ethyl-6-(4-hydroxy-phenyl)-1H-pyrazolo[3,4-b]pyridine-4-carboxylic acid ((R)-6-oxo-piperidin-3-yl)-amide]",34,
"Cc1n[nH]c2nc(-c3ccc(O)cc3)cc(C(=O)NC3CCNCC3)c12 [Example 74, 6-(4-Hydroxy-phenyl)-3-methyl-1H-pyrazolo[3,4-b]pyridine-4-carboxylic acid piperidin-4-ylamide]",47,

# The remaining lines, values ahead:
inhibition at 1.14 µM [%],% Inhibition [%],SMILES
99,,"Cc1n[nH]c2nc(-c3ccc(O)cc3)cc(C(=O)N3CCNC(C)C3C)c12 (centres unmarked) [Example 194, (2,3-Dimethyl-piperazin-1-yl)-[6-(4-hydroxy-phenyl)-3-methyl-1H-pyrazolo[3,4-b]pyridin-4-yl]-methanone]"
110,,"CC[C@H]1CNCCN1C(=O)c1cc(-c2ccc(O)cc2)nc2[nH]nc(C)c12 [Example 20, ((S)-2-Ethyl-piperazin-1-yl)-[6-(4-hydroxy-phenyl)-3-methyl-1H-pyrazolo[3,4-b]pyridin-4-yl]-methanone]"
106,,"Cc1n[nH]c2nc(-c3ccc(O)cc3F)cc(C(=O)N3CC(C)NCC3(C)C)c12 (centres unmarked) [Example 434, [6-(2-Fluoro-4-hydroxy-phenyl)-3-methyl-1H-pyrazolo[3,4-b]pyridin-4-yl]-(2,2,5-trimethyl-piperazin-1-yl)-methanone]"
95,,"Cc1n[nH]c2nc(-c3ccc(O)cc3)cc(C(=O)N3CCC4CNCC43)c12 (centres unmarked) [Example 226, (Hexahydro-pyrrolo[3,4-b]pyrrol-1-yl)-[6-(4-hydroxy-phenyl)-3-methyl-1H-pyrazolo[3,4-b]pyridin-4-yl]-methanone]"
97,,"Cc1n[nH]c2nc(-c3ccc(O)cc3)cc(C(=O)N3CCNCC3c3ccccc3)c12 (centres unmarked) [Example 26, [6-(4-Hydroxy-phenyl)-3-methyl-1H-pyrazolo[3,4-b]pyridin-4-yl]-(2-phenyl-piperazin-1-yl)-methanone]"
97,,"COc1cccc(C2CNCCN2C(=O)c2cc(-c3ccc(O)cc3C)nc3[nH]nc(C)c23)c1 (centres unmarked) [Example 146, [6-(4-Hydroxy-2-methyl-phenyl)-3-methyl-1H-pyrazolo[3,4-b]pyridin-4-yl]-[2-(3-methoxy-phenyl)-piperazin-1-yl]-methanone]"
98,,"CC[C@@H]1CN(C(=O)c2cc(-c3ccc(O)cc3F)nc3[nH]nc(C)c23)[C@@H](C)CN1 [Example 446, ((2S,5R)-5-Ethyl-2-methyl-piperazin-1-yl)-[6-(2-fluoro-4-hydroxy-phenyl)-3-methyl-1H-pyrazolo[3,4-b]pyridin-4-yl)-methanone]"
99,,"Cc1n[nH]c2nc(-c3ccc(O)cc3)cc(C(=O)N3CCNCC3(C)C)c12 [Example 199, (2,2-Dimethyl-piperazin-1-yl)-[6-(4-hydroxy-phenyl)-3-methyl-1H-pyrazolo[3,4-b]pyridin-4-yl]-methanone]"
,88,"Cc1n[nH]c2nc(-c3ccc(O)cc3)cc(C(=O)N3CCNC(c4ccccc4)C3)c12 (single isomer, unassigned) [Example 456, [6-(4-Hydroxy-phenyl)-3-methyl-1H-pyrazolo[3,4-b]pyridin-4-yl]-(3-phenyl-piperazin-1-yl)-methanone]"
99,,"Cc1n[nH]c2nc(-c3ccc(O)cc3)cc(C(=O)N3CCNC[C@H]3c3ccccc3)c12 [Example 28, [6-(4-Hydroxy-phenyl)-3-methyl-1H-pyrazolo[3,4-b]pyridin-4-yl]-((R)-2-phenyl-piperazin-1-yl)-methanone]"
70,,"COC(=O)CC1CNCCN1C(=O)c1cc(-c2ccc(O)c(F)c2)nc2[nH]nc(C)c12 (centres unmarked) [Example 353, {1-[6-(3-Fluoro-4-hydroxy-phenyl)-3-methyl-1H-pyrazolo[3,4-b]pyridine-4-carbonyl]-piperazin-2-yl}-acetic acid methyl ester]"
97,,"Cc1n[nH]c2nc(-c3ccc(O)cc3)cc(C(=O)N3CCNCC3c3cccc(C(F)(F)F)c3)c12 (centres unmarked) [Example 99, [6-(4-Hydroxy-phenyl)-3-methyl-1H-pyrazolo[3,4-b]pyridin-4-yl]-[2-(3-trifluoromethyl-phenyl)-piperazin-1-yl]-methanone]"
